Reference: US20260070945A1, “MACROCYCLIC IMMUNOMODULATORS” (Bristol-Myers Squibb Company, priority 2022, published 2026)
Where a SMILES comes first, the peptide text is derived from it. Bridges are numbered along the chain shown (N, C = ends). [ ]: non-standard residue; d: D form. The star is where a group is joined. Bip = N[C@@H](Cc1ccc(-c2ccccc2)cc1)C(=O)O; 4Pal = N[C@@H](Cc1ccncc1)C(=O)O; Cha = N[C@@H](CC1CCCCC1)C(=O)O; Cit = NC(=O)NCCC[C@H](N)C(=O)O; Carboxymethyl = O=C(O)C*; NMeA = CN[C@@H](C)C(=O)O; Orn = NCCC[C@H](N)C(=O)O; Aun = NCCCCCCCCCCC(=O)O; Dab = NCC[C@H](N)C(=O)O; Dap = NC[C@H](N)C(=O)O; AEEA = NCCOCCOCC(=O)O

The molecules below were run against T1, PD-1/PD-L1 interaction (PE-labeled human PD-L1-Ig binding to Jurkat cell line over-expressing human PD-1) (Homo sapiens, UniProt Q15116) (assay: Jurkat-PD-1 Cell Binding High-Content Screening Assay (CBA)). Conditions: Jurkat-hPD-1 cells, PE-labeled PD-L1-Ig 20 nM final; read-out: Jurkat HPD1 PDL1 IC50.
T1 construct: expressed in transfected cells; host or cells: Jurkat
T1 sequence (Q15116 25-288): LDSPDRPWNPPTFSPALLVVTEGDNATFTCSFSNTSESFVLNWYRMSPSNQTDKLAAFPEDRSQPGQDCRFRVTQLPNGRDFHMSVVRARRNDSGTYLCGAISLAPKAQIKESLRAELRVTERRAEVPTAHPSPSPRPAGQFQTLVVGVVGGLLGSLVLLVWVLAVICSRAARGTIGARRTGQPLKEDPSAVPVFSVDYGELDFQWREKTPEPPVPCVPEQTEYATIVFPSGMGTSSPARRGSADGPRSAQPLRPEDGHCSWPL
Summary of the method: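 Read-out: high-content imaging of cell-bound PE fluorescence, with Hoechst 33342 nuclear counterstain after paraformaldehyde fixation. Before labeled ligand (20 nM final, 1 h) was added, compound sat on the cells for 2 h at 37 °C in DMEM/10% FCS.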

In order of falling IC50:
1. CC(C)C[C@@H]1NC(=O)[C@H](Cc2c[nH]c3ccccc23)NC(=O)[C@H](CC(=O)O)NC(=O)[C@H](Cc2ccncc2)NC(=O)[C@H](Cc2ccc(OCC(=O)O)cc2)NC(=O)CSC[C@@H](C(=O)NCCOCCOCC(=O)N[C@@H](CCCNC(N)=O)C(=O)NCCCCCCCCCCC(=O)O)NC(=O)[C@H](CCCNC(N)=O)NC(=O)[C@H](C(C)C)NC(=O)[C@H](CC2CCCCC2)NC(=O)[C@H](CCN)NC(=O)[C@@H](CC(C)C)NC(=O)[C@H](C)N(C)C(=O)[C@H](C(C)C)NC(=O)[C@H](Cc2ccc(-c3ccccc3)cc2)NC1=O [Example 2174] ({CH2CO}-Y(Carboxymethyl)[4Pal]DWL[Bip]V[NMeA][dL][Dab][Cha]V[Cit]C[AEEA][Cit][Aun]-OH; thioether N-14)  16.4 nM
2. CC(C)C[C@@H]1NC(=O)[C@H](Cc2c[nH]c3ccccc23)NC(=O)[C@H](CC(=O)O)NC(=O)[C@H](Cc2ccncc2)NC(=O)[C@H](Cc2ccc(OCC(=O)O)cc2)NC(=O)CSC[C@@H](C(=O)NCC(=O)NCCOCCOCC(=O)N[C@@H](CCCNC(N)=O)C(=O)NCCCCCCCCCCC(=O)O)NC(=O)[C@H](CCCNC(N)=O)NC(=O)[C@H](C(C)C)NC(=O)[C@H](CC2CCCCC2)NC(=O)[C@H](CCN)NC(=O)[C@@H](CC(C)C)NC(=O)[C@H](C)N(C)C(=O)[C@H](C(C)C)NC(=O)[C@H](Cc2ccc(-c3ccccc3)cc2)NC1=O [Example 2173] ({CH2CO}-Y(Carboxymethyl)[4Pal]DWL[Bip]V[NMeA][dL][Dab][Cha]V[Cit]CG[AEEA][Cit][Aun]-OH; thioether N-14)  15.6 nM
3. CC(C)C[C@@H]1NC(=O)[C@H](Cc2c[nH]c3ccccc23)NC(=O)[C@H](CC(=O)O)NC(=O)[C@H](Cc2ccncc2)NC(=O)[C@H](Cc2ccc(OCC(=O)O)cc2)NC(=O)CSC[C@@H](C(=O)NCC(=O)NCCOCCOCC(=O)N[C@@H](CCCCN)C(=O)NCCCCCCCCCCC(=O)O)NC(=O)[C@H](CCCNC(N)=O)NC(=O)[C@H](C(C)C)NC(=O)[C@H](CC2CCCCC2)NC(=O)[C@H](CCN)NC(=O)[C@@H](CC(C)C)NC(=O)[C@H](C)N(C)C(=O)[C@H](C(C)C)NC(=O)[C@H](Cc2ccc(-c3ccccc3)cc2)NC1=O [Example 2172] ({CH2CO}-Y(Carboxymethyl)[4Pal]DWL[Bip]V[NMeA][dL][Dab][Cha]V[Cit]CG[AEEA]K[Aun]-OH; thioether N-14)  13 nM
4. CC(=O)NCCC[C@@H]1NC(=O)[C@H](C(C)C)NC(=O)[C@H](CC2CCCCC2)NC(=O)[C@H](CCN)NC(=O)[C@@H](CC(C)C)NC(=O)[C@H](C)N(C)C(=O)[C@H](C(C)C)NC(=O)[C@H](Cc2ccc(-c3ccccc3)cc2)NC(=O)[C@H](CC(C)C)NC(=O)[C@H](Cc2c[nH]c3ccccc23)NC(=O)[C@H](CC(=O)O)NC(=O)[C@H](Cc2ccncc2)NC(=O)[C@H](Cc2ccc(OCC(=O)O)cc2)NC(=O)CSC[C@@H](C(=O)NCC(=O)NCCOCCOCC(=O)N[C@@H](CN)C(=O)NCCCCCCCCCCC(=O)O)NC1=O [Example 2169] ({CH2CO}-Y(Carboxymethyl)[4Pal]DWL[Bip]V[NMeA][dL][Dab][Cha]V[Orn](Ac)CG[AEEA][Dap][Aun]-OH; thioether N-14)  12.6 nM
5. CC(C)C[C@@H]1NC(=O)[C@H](Cc2c[nH]c3ccccc23)NC(=O)[C@H](CC(=O)O)NC(=O)[C@H](Cc2ccncc2)NC(=O)[C@H](Cc2ccc(OCC(=O)O)cc2)NC(=O)CSC[C@@H](C(=O)NCC(=O)NCCOCCOCC(=O)N[C@@H](CCN)C(=O)NCCCCCCCCCCC(=O)O)NC(=O)[C@H](CCCNC(N)=O)NC(=O)[C@H](C(C)C)NC(=O)[C@H](CC2CCCCC2)NC(=O)[C@H](CCN)NC(=O)[C@@H](CC(C)C)NC(=O)[C@H](C)N(C)C(=O)[C@H](C(C)C)NC(=O)[C@H](Cc2ccc(-c3ccccc3)cc2)NC1=O [Example 2170] ({CH2CO}-Y(Carboxymethyl)[4Pal]DWL[Bip]V[NMeA][dL][Dab][Cha]V[Cit]CG[AEEA][Dab][Aun]-OH; thioether N-14)  8.6 nM
